We go through two molecules from patent US20090215791A1, “NEW THERAPEUTIC USE OF 4-(2-FLUOROPHENYL)-6-METHYL-2-(1-PIPERAZINYL)THIENO[2,3-D]PYRIMIDINE” (Dynogen Pharmaceuticals, Inc., priority 2001, published 2009).

The test system of experiment [1] is reflex depressor response to colorectal distension. The experiment can be described thus: Reflex depressor response to colorectal distension in anesthetised rats (Study 2). The class given is in vivo, male Sprague-Dawley rats. The settings on record: for Fall in arterial blood pressure (mean absolute decrease in mean arterial pressure, SEM in brackets) evoked by balloon distension: after MCI-225 3 mg/kg i.v. The method, then:
In Study 2, using intact animals, the ability of a drug to inhibit the reflex depressor response to colorectal distension can be assessed. In this model, an inhibition of the reflex indicates modulation of visceral nociceptive neurotransmission and, therefore, the use of the drug in functional bowel disease (e.g IBS); see Kozlowski et al, 2000, Gut 46, 474-480. Allodynia and visceral pain are important components of functional bowel disease.
Experiments were performed on male Sprague-Dawley rats (250-300 g). Anesthesia was induced with isoflurane (2.5% in oxygen) and maintained with alpha chlorolose (80 mg/kg i.v.). The left carotid artery was cannulated for the measurement of blood pressure and heart rate and the left jugular vein cannulated for drug administration. A tracheal cannula was implanted for artificial respiration if required. A 10 mm long latex balloon was inserted intrarectally so that the tip of the balloon was 20 mm from the anal verge (Kozlowski et al, supra). The balloon was connected via a double lumen cannula to a pressure transducer and also to a saline-filled syringe for inflation/deflation of the balloon. Throughout the experiment, body temperature was kept constant at 36-38 C using a homeothermic blanket.
Once stable baseline parameters were obtained (approximately after 20 minutes), the balloon was rapidly inflated with increasing volumes of saline (0.5-2.5 ml) for 30 seconds at 5 minute intervals, and the resultant change in blood pressure recorded. Three distinct response curves were constructed, with a 10 minute stabilisation period between each curve. In one group of animals, 10 minutes prior to the commencement of the final distension response curve, a single bolus of MCI-225 (3 mg/kg) was administered intravenously; in a second group of animals, a single bolus dose of vehicle was administered. The effect of MCI-225 and vehicle was determined by analysing the changes in colorectal distension that evoked depressor response.

Experiment [2] concerns inflammatory pain (inflamed paw). The experiment can be described thus: Inflammatory pain, modified Randall Selitto method, paw pressure analgesiometer (Study 1). It is filed as in vivo, rats. The settings on record: for Group mean (±sd) pain threshold (g) of inflamed paw at 1 hour pre-dose / Group mean (±sd) pain threshold (g) of inflamed paw at 2 hour pre-dose: baseline before dosing, 13 per group, groups later given MCI-225 30 mg/kg or indomethacin 1 mg/kg. The protocol: Three groups of rats received vehicle, indomethacin or MCI-225. There were 13 rats in each group. Inflammatory pain was induced following a modified Randall Selitto method and the pain threshold of the inflamed paw was measured using a paw pressure analgesiometer. The threshold for paw withdrawal was measured in grams at 1 and 3 hours post dose.

For the molecule `Cc1cc2c(-c3ccccc3F)nc(N3CCNCC3)nc2s1.Cl.O` [MCI-225, 4-(2-Fluorophenyl)-6-methyl-2-(1-piperazinyl)thieno[2,3-D]pyrimidine monohydrate hydrochloride], the “Fall in arterial blood pressure (mean absolute decrease in mean arterial pressure, SEM in brackets) evoked by balloon distension” value is listed as 2.2 (1.65) mmHg in experiment [1] (0.5 ml balloon volume, n=6, before drug 2.7 (1.9)); 6.3 (2.6) mmHg in experiment [1] (1.0 ml balloon volume, n=6, before drug 12.4 (5.9)); 10.6 (3.9) mmHg in experiment [1] (1.5 ml balloon volume, n=6, before drug 24.0 (8.9)); 15.3 (5.4) mmHg in experiment [1] (2.0 ml balloon volume, n=6, before drug 36.3 (4.8), p<0.01 paired t test); 24.6 (7.3) mmHg in experiment [1] (2.5 ml balloon volume, n=5, before drug 43.4 (6.0), p<0.05 paired t test). Also, the “Effect on distension-induced falls in blood pressure (in words)” value in experiment [1] (MCI-225 3 mg/kg i.v., significant at 2.0 and 2.5 ml balloon volumes) is “inhibited the distension-induced falls in blood pressure”. Further, in experiment [2] (1 hour post-dose, MCI-225 30 mg/kg (oral), indomethacin 1 mg/kg, rats, * p<0.05, ** p<0.01 vs vehicle, monohydrate hydrochloride), the “Group mean changes (±sd) in pain threshold (g) from pre-dose reading at 1 hour post-dose” value is reported as 32.3 g. Also, in experiment [2] (3 hour post-dose, MCI-225 30 mg/kg (oral), indomethacin 1 mg/kg, rats, * p<0.05, ** p<0.01 vs vehicle, monohydrate hydrochloride), the “Group mean changes (±sd) in pain threshold (g) from pre-dose reading at 3 hour post-dose” value amounted to 66.9 g. Also, the “Analgesic activity in in vivo model of inflammatory pain (in words)” value in experiment [2] (MCI-225 oral dose of 30 mg/kg versus indomethacin 1 mg/kg) was “comparable to that of indomethacin”. Also, the “Group mean (±sd) pain threshold (g) of inflamed paw at 1 hour pre-dose” value in experiment [2] (rats) is listed as 147.7 ± 65.91 g. For the same molecule, the “Group mean (±sd) pain threshold (g) of inflamed paw at 2 hour pre-dose” value in experiment [2] (rats) is recorded as 138.5 ± 34.72 g.

Turning to `COc1ccc2c(c1)c(CC(=O)O)c(C)n2C(=O)c1ccc(Cl)cc1` [Indomethacin, indomethacin, reference compound], in experiment [2] (rats), the “Group mean (±sd) pain threshold (g) of inflamed paw at 1 hour pre-dose” value came to 166.2 ± 68.32 g and the “Group mean (±sd) pain threshold (g) of inflamed paw at 2 hour pre-dose” value is recorded as 144.2 ± 41.32 g.
